From paper PMC6978363, “Chaperone mediated detection of small molecule target binding in cells” (Nature Communications, 2020)

Key:
Assay in all cases: biochemical
[1] = molecular target: DYRK1B (Homo sapiens, UniProt Q9Y463)
Description: (§1) The detection of EGFR (another HER family member) was ambiguous because the peptides used to detect it were also present in ERBB2.

[2] = molecular target: LTK (Homo sapiens, UniProt P29376)
Description: as §1

[3] = molecular target: T1, MST2 (Homo sapiens, UniProt Q13188); settings: read-out: % Inhibition (at 10mM)
T1 construct: gene STK3

[4] = molecular target: mTOR (Homo sapiens, UniProt P42345)
[5] = molecular target: T2, CHK1 (Homo sapiens, UniProt O14757); settings: read-out: % Inhibition (at 10mM)
T2 construct: gene CHEK1

[6] = molecular target: SGK2 (Homo sapiens, UniProt Q9HBY8); settings: read-out: % Inhibition (at 10mM)
[7] = molecular target: PLK1 (Homo sapiens, UniProt P53350); settings: read-out: % Inhibition (at 10mM)
[8] = molecular target: PAK2 (Homo sapiens, UniProt Q13177); settings: read-out: % Inhibition (at 10mM)
[9] = molecular target: T3, ERK5 (Homo sapiens, UniProt Q13164); settings: read-out: % Inhibition (at 10mM)
T3 construct: gene MAPK7

[10] = molecular target: T4, TAO2 (Homo sapiens, UniProt Q9UL54); settings: read-out: % Inhibition (at 10mM)
T4 construct: gene TAOK2

[11] = molecular target: ROCK1 (Homo sapiens, UniProt Q13464); settings: read-out: % Inhibition (at 10mM)
[12] = molecular target: T5, FAK (Homo sapiens, UniProt Q05397); settings: read-out: % Inhibition (at 10mM)
T5 construct: gene PTK2
T5 sequence (Q05397 whole entry): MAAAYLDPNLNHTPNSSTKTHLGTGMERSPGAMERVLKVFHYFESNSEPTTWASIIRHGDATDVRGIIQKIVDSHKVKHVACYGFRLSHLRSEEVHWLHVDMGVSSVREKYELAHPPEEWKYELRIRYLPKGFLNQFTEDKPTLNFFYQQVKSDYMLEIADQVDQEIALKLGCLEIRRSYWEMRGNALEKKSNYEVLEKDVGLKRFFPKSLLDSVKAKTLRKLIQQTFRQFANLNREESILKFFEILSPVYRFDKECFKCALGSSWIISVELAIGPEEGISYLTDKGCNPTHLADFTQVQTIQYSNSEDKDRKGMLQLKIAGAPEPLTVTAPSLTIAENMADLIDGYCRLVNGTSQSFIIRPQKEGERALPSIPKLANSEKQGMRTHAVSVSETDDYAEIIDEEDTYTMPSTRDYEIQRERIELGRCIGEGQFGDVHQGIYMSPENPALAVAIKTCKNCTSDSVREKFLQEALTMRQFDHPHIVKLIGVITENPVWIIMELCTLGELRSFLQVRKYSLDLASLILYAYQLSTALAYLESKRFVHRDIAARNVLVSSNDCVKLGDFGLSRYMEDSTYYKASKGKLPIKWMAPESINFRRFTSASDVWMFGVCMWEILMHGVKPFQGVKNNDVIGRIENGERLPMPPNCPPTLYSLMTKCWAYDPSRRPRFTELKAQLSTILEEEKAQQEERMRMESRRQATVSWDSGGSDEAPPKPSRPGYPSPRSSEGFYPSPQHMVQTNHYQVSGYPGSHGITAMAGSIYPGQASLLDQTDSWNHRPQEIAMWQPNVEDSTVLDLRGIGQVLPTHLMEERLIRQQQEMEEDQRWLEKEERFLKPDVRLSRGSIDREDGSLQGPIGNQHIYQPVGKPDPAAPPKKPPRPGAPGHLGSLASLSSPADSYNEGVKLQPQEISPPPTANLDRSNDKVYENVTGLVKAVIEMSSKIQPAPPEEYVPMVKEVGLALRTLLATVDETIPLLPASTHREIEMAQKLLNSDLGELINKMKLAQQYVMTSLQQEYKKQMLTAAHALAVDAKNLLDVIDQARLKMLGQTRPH

[13] = molecular target: T6, PRKAA2_B1_G3 (Homo sapiens, UniProt P54646); settings: read-out: % Inhibition (at 10mM)
T6 construct: gene PRKAA2

[14] = molecular target: T7, PRAK (Homo sapiens, UniProt Q8IW41); settings: read-out: % Inhibition (at 10mM)
T7 construct: gene MAPKAPK5

[15] = molecular target: FGFR1 (Homo sapiens, UniProt P11362); settings: read-out: % Inhibition (at 10mM)
[16] = molecular target: T8, MSK1 (Homo sapiens, UniProt O75582); settings: read-out: % Inhibition (at 10mM)
T8 construct: gene RPS6KA5

[17] = molecular target: ROCK2 (Homo sapiens, UniProt O75116); settings: read-out: % Inhibition (at 10mM)
[18] = molecular target: T9, MST3 (Homo sapiens, UniProt Q9Y6E0); settings: read-out: % Inhibition (at 10mM)
T9 construct: gene STK24
T9 sequence (Q9Y6E0 whole entry): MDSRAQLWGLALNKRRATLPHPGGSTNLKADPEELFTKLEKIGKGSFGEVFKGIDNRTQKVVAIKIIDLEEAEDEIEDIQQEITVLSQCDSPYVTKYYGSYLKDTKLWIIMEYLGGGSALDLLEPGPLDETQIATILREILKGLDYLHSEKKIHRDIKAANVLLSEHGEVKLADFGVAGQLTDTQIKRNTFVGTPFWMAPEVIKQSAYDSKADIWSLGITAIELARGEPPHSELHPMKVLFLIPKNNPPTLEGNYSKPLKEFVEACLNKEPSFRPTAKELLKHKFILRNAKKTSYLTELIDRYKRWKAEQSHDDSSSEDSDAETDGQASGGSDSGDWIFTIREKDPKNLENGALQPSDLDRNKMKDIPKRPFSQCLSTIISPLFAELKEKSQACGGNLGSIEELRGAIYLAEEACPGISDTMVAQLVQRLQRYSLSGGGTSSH

[19] = molecular target: T10, Yes (Homo sapiens, UniProt P07947); settings: read-out: % Inhibition (at 10mM)
T10 construct: gene YES1

[20] = molecular target: T11, GCK (Homo sapiens, UniProt Q12851); settings: read-out: % Inhibition (at 10mM)
T11 construct: gene MAP4K2
T11 sequence (Q12851 whole entry): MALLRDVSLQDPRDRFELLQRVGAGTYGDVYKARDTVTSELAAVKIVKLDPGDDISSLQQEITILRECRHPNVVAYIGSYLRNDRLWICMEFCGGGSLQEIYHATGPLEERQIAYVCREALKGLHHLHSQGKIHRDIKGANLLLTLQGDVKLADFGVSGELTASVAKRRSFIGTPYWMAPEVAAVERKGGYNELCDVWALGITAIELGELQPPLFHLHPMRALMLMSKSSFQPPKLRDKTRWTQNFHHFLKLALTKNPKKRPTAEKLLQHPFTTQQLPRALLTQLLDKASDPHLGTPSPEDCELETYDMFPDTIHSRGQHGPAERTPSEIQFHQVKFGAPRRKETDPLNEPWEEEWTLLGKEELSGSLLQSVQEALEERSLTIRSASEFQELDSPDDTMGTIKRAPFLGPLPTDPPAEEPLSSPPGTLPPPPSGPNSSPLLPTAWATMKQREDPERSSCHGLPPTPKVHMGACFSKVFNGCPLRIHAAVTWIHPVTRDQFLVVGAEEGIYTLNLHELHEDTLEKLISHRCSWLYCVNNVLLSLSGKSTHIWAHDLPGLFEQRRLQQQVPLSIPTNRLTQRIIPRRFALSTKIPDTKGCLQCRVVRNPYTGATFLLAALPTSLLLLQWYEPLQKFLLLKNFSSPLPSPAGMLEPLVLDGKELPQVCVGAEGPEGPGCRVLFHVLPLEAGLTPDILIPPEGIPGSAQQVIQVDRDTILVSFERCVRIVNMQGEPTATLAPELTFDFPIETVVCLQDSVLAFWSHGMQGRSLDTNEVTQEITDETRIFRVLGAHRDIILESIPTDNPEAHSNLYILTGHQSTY

[21] = molecular target: T12, PKA (Homo sapiens, UniProt P17612); settings: read-out: % Inhibition (at 10mM)
T12 construct: gene PRKACA

[22] = molecular target: T13, PKC_beta2 (Homo sapiens, UniProt P05771); settings: read-out: % Inhibition (at 10mM)
T13 construct: gene PRKCB; isoform beta 2

[23] = molecular target: EphB4 (Homo sapiens, UniProt P54760); settings: read-out: % Inhibition (at 10mM)
Sequence of EphB4 (P54760 whole entry): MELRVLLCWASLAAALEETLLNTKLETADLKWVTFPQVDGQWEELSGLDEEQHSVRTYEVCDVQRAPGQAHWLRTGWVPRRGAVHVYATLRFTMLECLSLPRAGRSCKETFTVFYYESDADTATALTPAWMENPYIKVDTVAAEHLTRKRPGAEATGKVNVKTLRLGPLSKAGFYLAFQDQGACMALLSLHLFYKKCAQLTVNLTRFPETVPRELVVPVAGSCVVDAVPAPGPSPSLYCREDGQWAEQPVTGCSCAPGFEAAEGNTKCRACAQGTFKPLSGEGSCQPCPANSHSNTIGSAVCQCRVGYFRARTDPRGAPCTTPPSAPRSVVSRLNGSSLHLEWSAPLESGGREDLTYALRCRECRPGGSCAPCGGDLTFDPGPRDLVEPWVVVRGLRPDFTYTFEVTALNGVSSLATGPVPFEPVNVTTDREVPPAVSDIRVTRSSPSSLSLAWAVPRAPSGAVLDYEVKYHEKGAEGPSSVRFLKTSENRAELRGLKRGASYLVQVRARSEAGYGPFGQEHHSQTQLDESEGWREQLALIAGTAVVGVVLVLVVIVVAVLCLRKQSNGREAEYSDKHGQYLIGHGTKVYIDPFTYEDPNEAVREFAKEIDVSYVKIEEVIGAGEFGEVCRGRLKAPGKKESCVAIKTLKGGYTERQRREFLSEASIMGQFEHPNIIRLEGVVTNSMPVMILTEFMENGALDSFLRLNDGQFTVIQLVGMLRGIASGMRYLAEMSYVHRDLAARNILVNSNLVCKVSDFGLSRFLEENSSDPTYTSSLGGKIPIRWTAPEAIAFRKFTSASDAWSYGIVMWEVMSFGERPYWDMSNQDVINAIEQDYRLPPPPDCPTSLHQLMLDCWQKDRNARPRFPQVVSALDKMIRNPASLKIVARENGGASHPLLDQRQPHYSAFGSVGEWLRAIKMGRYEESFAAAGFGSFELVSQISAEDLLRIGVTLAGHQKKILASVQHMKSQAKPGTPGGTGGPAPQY

[24] = molecular target: T14, CK1_alpha1 (Homo sapiens, UniProt P48729); settings: read-out: % Inhibition (at 10mM)
T14 construct: gene CSNK1A1
T14 sequence (P48729 whole entry): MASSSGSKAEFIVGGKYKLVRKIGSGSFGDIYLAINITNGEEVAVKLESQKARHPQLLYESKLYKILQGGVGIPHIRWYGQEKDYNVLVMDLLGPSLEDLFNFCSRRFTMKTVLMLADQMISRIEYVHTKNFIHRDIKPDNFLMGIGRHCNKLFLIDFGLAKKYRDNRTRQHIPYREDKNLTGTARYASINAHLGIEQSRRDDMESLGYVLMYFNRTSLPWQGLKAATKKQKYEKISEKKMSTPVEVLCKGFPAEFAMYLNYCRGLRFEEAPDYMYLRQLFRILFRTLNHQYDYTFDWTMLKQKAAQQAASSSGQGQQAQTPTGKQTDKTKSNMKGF

[25] = molecular target: T15, PDGFR_alpha (Homo sapiens, UniProt P16234); settings: read-out: % Inhibition (at 10mM)
T15 construct: gene PDGFRA

[26] = molecular target: T16, IRR (Homo sapiens, UniProt P14616); settings: read-out: % Inhibition (at 10mM)
T16 construct: gene INSRR

[27] = molecular target: Fes (Homo sapiens, UniProt P07332); settings: read-out: % Inhibition (at 10mM)
[28] = molecular target: TSSK2 (Homo sapiens, UniProt Q96PF2); settings: read-out: % Inhibition (at 10mM)
[29] = molecular target: PAK1 (Homo sapiens, UniProt Q13153); settings: read-out: % Inhibition (at 10mM)
[30] = molecular target: GRK4 (Homo sapiens, UniProt P32298); settings: read-out: % Inhibition (at 10mM)
[31] = molecular target: CDK1/cyclinB (Homo sapiens, UniProt P06493); settings: read-out: % Inhibition (at 10mM)
[32] = molecular target: ErbB2 (Homo sapiens, UniProt P04626); settings: read-out: % Inhibition (at 10mM)
[33] = molecular target: SRPK1 (Homo sapiens, UniProt Q96SB4); settings: read-out: % Inhibition (at 10mM)
[34] = molecular target: T17, p38_delta (Homo sapiens, UniProt O15264); settings: read-out: % Inhibition (at 10mM)
T17 construct: gene MAPK13

[35] = molecular target: T18, PKD2 (Homo sapiens, UniProt Q9BZL6); settings: read-out: % Inhibition (at 10mM)
T18 construct: gene PRKD2

[36] = molecular target: AKT3 (Homo sapiens, UniProt Q9Y243); settings: read-out: % Inhibition (at 10mM)
Sequence of AKT3 (Q9Y243 whole entry): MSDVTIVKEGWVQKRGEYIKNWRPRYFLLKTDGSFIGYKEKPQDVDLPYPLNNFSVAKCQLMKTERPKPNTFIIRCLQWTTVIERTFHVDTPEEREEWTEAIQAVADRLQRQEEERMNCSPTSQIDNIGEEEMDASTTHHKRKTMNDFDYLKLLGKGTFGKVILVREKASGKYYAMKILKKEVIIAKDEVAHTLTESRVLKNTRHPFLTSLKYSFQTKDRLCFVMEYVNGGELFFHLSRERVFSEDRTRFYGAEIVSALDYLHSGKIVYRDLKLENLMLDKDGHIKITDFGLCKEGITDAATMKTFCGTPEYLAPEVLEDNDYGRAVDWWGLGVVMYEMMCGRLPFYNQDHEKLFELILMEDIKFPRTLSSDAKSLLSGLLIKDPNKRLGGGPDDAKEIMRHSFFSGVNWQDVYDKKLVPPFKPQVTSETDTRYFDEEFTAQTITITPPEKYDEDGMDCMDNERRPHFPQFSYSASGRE

Sequence of LTK (P29376 whole entry): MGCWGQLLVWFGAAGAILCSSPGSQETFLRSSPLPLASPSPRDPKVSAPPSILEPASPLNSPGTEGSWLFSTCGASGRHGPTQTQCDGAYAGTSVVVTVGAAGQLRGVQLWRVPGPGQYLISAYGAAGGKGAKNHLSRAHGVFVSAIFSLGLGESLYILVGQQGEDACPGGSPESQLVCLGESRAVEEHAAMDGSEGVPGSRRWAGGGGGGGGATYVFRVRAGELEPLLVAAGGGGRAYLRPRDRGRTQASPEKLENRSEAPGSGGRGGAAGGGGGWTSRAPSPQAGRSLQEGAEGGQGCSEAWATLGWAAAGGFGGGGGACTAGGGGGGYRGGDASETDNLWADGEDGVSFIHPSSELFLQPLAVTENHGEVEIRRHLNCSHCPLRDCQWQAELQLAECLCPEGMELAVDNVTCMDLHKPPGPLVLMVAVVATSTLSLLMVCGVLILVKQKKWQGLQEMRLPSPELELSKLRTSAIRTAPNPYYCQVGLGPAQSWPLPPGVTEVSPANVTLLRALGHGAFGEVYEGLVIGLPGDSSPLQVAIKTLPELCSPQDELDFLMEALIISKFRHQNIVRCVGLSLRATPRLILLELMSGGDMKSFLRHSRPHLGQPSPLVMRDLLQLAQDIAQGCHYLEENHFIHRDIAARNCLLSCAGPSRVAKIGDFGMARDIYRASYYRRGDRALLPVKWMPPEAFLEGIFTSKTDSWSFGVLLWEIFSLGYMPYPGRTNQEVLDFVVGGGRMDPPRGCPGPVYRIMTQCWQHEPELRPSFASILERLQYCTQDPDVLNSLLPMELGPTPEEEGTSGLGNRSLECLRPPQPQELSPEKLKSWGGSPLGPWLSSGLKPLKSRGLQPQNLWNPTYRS

CC(C)(O)CC(=O)NCCn1ccc2ncnc(Nc3ccc(Oc4cccc(C(F)(F)F)c4)c(Cl)c3)c21 [TAK-285]
inhibition at 10 µM [1]: 3% | inhibition at 10 µM [2]: 0.5% | inhibition [3]: 6% | inhibition at 10 µM [4]: 9.5% | inhibition [5]: 4.5% | inhibition [6]: 3.5% | inhibition [7]: 8% | inhibition [8]: 10.5% | inhibition [9]: 0.5% | inhibition [10]: -5% | inhibition [11]: -1.5% | inhibition [12]: 7.5% | inhibition [13]: 4% | inhibition [14]: 3.5% | inhibition [15]: 4% | inhibition [16]: 2.5% | inhibition [17]: -0.5% | inhibition [18]: 7% | inhibition [19]: 83% | inhibition [20]: 6.5% | inhibition [21]: 2.5% | inhibition [22]: 9.5% | inhibition [23]: 8% | inhibition [24]: 5.5% | inhibition [25]: 1.5% | inhibition [26]: 6.5% | inhibition [27]: 15.5% | inhibition [28]: 10.5% | inhibition [29]: 16% | inhibition [30]: -11.5% | inhibition [31]: 0.5% | inhibition [32]: 99% | inhibition [33]: 10.5% | inhibition [34]: 5.5% | inhibition [35]: 80.5% | inhibition [36]: 5%
